Laboratory results from US11357779B2 (G1 Therapeutics, Inc., priority 2018, dated 2022).

Assay: Noncompartmental pharmacokinetic parameters (Cmax, Tmax, AUC, Racc) in QD and BID cohorts of Form B
Type: in vivo, human
Details: for Racc (Max) / Racc (Mean) / Racc (Median) / Racc (Min): AUCDay 29/AUCDay 1
Protocol: Analysis of plasma concentration versus time data for calculation of standard pharmacokinetic (PK) parameters following oral administration was conducted using Phoenix WinNonlin version 6.3 using actual blood sampling times.
The following pharmacokinetic parameters were calculated from the concentration versus time data obtained in Example 1 for each of the above QD (200 mg, 300 mg, 400 mg, 500 mg, or 650 mg dosed) and BID (100 mg, 150 mg, or 200 mg doses) Form B of Compound II dosage cohorts: • Cmax—the observed peak plasma concentration determined from the plasma concentration versus time data obtained on Day 1 and Day 29, as applicable; • Tmax—the time to reach the observed peak plasma concentration from the plasma concentration versus time data obtained on Day 1 and Day 29, as applicable; • AUC—area under the plasma concentration versus time curve during a dosing interval on Day 1 and Day 29, as applicable; and • Racc—accumulation ratio calculated as AUCDay 29/AUCDay 1.

[1] = Cohort 1, 200 mg QD of Form B, Day 1
[2] = Cohort 2, 300 mg QD of Form B, Day 1
[3] = Cohort 3, 400 mg QD of Form B, Day 1
[4] = Cohort 4, 500 mg QD of Form B, Day 1
[5] = Cohort 5, 650 mg QD of Form B, Day 1
[6] = Cohort 6, 100 mg BID of Form B, Day 1
[7] = Compound I, 100 mg BID of Form B, Cohort 6
[8] = Compound I, 100 mg BID of Form B, Cohort 6, Day 29
[9] = Compound I, 150 mg BID of Form B, Cohort 7
[10] = Compound I, 150 mg BID of Form B, Cohort 7, Day 1
[11] = Compound I, 150 mg BID of Form B, Cohort 7, Day 29
[12] = Compound I, 200 mg BID of Form B, Cohort 7, Day 1
[13] = Compound I, 200 mg BID of Form B, Cohort 8
[14] = Compound I, 200 mg BID of Form B, Cohort 8, Day 29
[15] = Compound I, 200 mg QD of Form B, Cohort 1
[16] = Compound I, 200 mg QD of Form B, Cohort 1, Day 29
[17] = Compound I, 300 mg QD of Form B, Cohort 2
[18] = Compound I, 300 mg QD of Form B, Cohort 2, Day 29
[19] = Compound I, 400 mg QD of Form B, Cohort 3
[20] = Compound I, 400 mg QD of Form B, Cohort 3, Day 29
[21] = Compound I, 500 mg QD of Form B, Cohort 4
[22] = Compound I, 500 mg QD of Form B, Cohort 4, Day 29
[23] = Compound I, 650 mg QD of Form B, Cohort 5
[24] = Compound I, 650 mg QD of Form B, Cohort 5, Day 29

CC(C)N1CCN(c2ccc(Nc3ncc4cc5n(c4n3)C3(CCCCC3)CNC5=O)nc2)CC1 [Compound I, 2′-((5-(4-isopropylpiperazin-1-yl)pyridin-2-yl)amino)-7′,8′-dihydro-6′H-spiro[cyclohexane-1,9′-pyrazino[1′,2′:1,5]pyrrolo[2,3-d]pyrimidin]-6′-one]
AUClast (Max) [1]: 355 ng·h/mL | AUClast (Min) [1]: 98.9 ng·h/mL | Cmax (Max) [1]: 40.0 ng/mL | Cmax (Min) [1]: 8.26 ng/mL | AUClast (Max) [2]: 580 ng·h/mL | AUClast (Min) [2]: 106 ng·h/mL | AUClast (Max) [3]: 248 ng·h/mL | AUClast (Min) [3]: 177 ng·h/mL | Cmax (Max) [3]: 24.4 ng/mL | Cmax (Min) [3]: 14.4 ng/mL | AUClast (Max) [4]: 684 ng·h/mL | AUClast (Min) [4]: 403 ng·h/mL | Cmax (Max) [4]: 68.7 ng/mL | Cmax (Min) [4]: 27.8 ng/mL | AUClast (Max) [5]: 1040 ng·h/mL | AUClast (Min) [5]: 482 ng·h/mL | Cmax (Max) [5]: 80.7 ng/mL | Cmax (Min) [5]: 38.2 ng/mL | Tmax (Max) [5]: 10.0 h | AUClast (Max) [6]: 92.6 ng·h/mL | AUClast (Min) [6]: 42.8 ng·h/mL | Cmax (Max) [6]: 14.7 ng/mL | Cmax (Min) [6]: 7.25 ng/mL | Racc (Max) [7]: 2.96 (h * ng/mL)/(h * ng/mL) | Racc (Mean) [7]: 1.90 (h * ng/mL)/(h * ng/mL) | Racc (Median) [7]: 2.06 (h * ng/mL)/(h * ng/mL) | Racc (Min) [7]: 0.931 (h * ng/mL)/(h * ng/mL) | AUClast (Max) [8]: 183 ng·h/mL | AUClast (Min) [8]: 41.1 ng·h/mL | Cmax (Max) [8]: 20.5 ng/mL | Cmax (Min) [8]: 5.14 ng/mL | Tmax (Max) [8]: 12.0 h | Tmax (Min) [8]: 60 min | Racc (Max) [9]: 7.71 (h * ng/mL)/(h * ng/mL) | Racc (Mean) [9]: 3.88 (h * ng/mL)/(h * ng/mL) | Racc (Median) [9]: 2.28 (h * ng/mL)/(h * ng/mL) | Racc (Min) [9]: 1.66 (h * ng/mL)/(h * ng/mL) | AUClast (Max) [10]: 146 ng·h/mL | AUClast (Min) [10]: 103 ng·h/mL | Cmax (Max) [10]: 28.3 ng/mL | Cmax (Min) [10]: 12.2 ng/mL | AUClast (Max) [11]: 795 ng·h/mL | AUClast (Min) [11]: 235 ng·h/mL | Cmax (Max) [11]: 83.2 ng/mL | AUClast (Max) [12]: 185 ng·h/mL | AUClast (Min) [12]: 37.9 ng·h/mL | Cmax (Max) [12]: 29.0 ng/mL | Cmax (Min) [12]: 5.28 ng/mL | Racc (Max) [13]: 2.15 (h * ng/mL)/(h * ng/mL) | Racc (Mean) [13]: 2.06 (h * ng/mL)/(h * ng/mL) | Racc (Median) [13]: 2.11 (h * ng/mL)/(h * ng/mL) | Racc (Min) [13]: 1.91 (h * ng/mL)/(h * ng/mL) | AUClast (Max) [14]: 306 ng·h/mL | AUClast (Min) [14]: 79.8 ng·h/mL | Cmax (Max) [14]: 40.8 ng/mL | Cmax (Min) [14]: 7.69 ng/mL | Tmax (Max) [14]: 12.0 h | Racc (Max) [15]: 1.72 (h * ng/mL)/(h * ng/mL) | Racc (Mean) [15]: 1.17 (h * ng/mL)/(h * ng/mL) | Racc (Median) [15]: 1.15 (h * ng/mL)/(h * ng/mL) | Racc (Min) [15]: 0.740 (h * ng/mL)/(h * ng/mL) | AUClast (Max) [16]: 407 ng·h/mL | AUClast (Min) [16]: 73.2 ng·h/mL | Cmax (Max) [16]: 32.0 ng/mL | Cmax (Min) [16]: 5.90 ng/mL | Racc (Max) [17]: 3.62 (h * ng/mL)/(h * ng/mL) | Racc (Mean) [17]: 2.03 (h * ng/mL)/(h * ng/mL) | Racc (Median) [17]: 1.42 (h * ng/mL)/(h * ng/mL) | Racc (Min) [17]: 1.04 (h * ng/mL)/(h * ng/mL) | AUClast (Max) [18]: 789 ng·h/mL | AUClast (Min) [18]: 384 ng·h/mL | Cmax (Max) [18]: 73.0 ng/mL | Cmax (Min) [18]: 27.5 ng/mL | Tmax (Max) [18]: 10.0 h | Racc (Max) [19]: 1.90 (h * ng/mL)/(h * ng/mL) | Racc (Mean) [19]: 1.35 (h * ng/mL)/(h * ng/mL) | Racc (Median) [19]: 1.50 (h * ng/mL)/(h * ng/mL) | Racc (Min) [19]: 0.653 (h * ng/mL)/(h * ng/mL) | AUClast (Max) [20]: 371 ng·h/mL | AUClast (Min) [20]: 115 ng·h/mL | Cmax (Max) [20]: 26.7 ng/mL | Cmax (Min) [20]: 6.94 ng/mL | Racc (Max) [21]: 1.47 (h * ng/mL)/(h * ng/mL) | Racc (Mean) [21]: 1.12 (h * ng/mL)/(h * ng/mL) | Racc (Median) [21]: 0.965 (h * ng/mL)/(h * ng/mL) | Racc (Min) [21]: 0.932 (h * ng/mL)/(h * ng/mL) | AUClast (Max) [22]: 660 ng·h/mL | AUClast (Min) [22]: 570 ng·h/mL | Cmax (Max) [22]: 48.2 ng/mL | Cmax (Min) [22]: 36.4 ng/mL | Racc (Max) [23]: 1.47 (h * ng/mL)/(h * ng/mL) | Racc (Mean) [23]: 1.12 (h * ng/mL)/(h * ng/mL) | Racc (Median) [23]: 0.965 (h * ng/mL)/(h * ng/mL) | Racc (Min) [23]: 0.932 (h * ng/mL)/(h * ng/mL) | AUClast (Max) [24]: 660 ng·h/mL | AUClast (Min) [24]: 570 ng·h/mL | Cmax (Max) [24]: 48.2 ng/mL | Cmax (Min) [24]: 36.4 ng/mL
